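Following 48 hours of exposure in 96-well plates, responses at five concentrations were used to interpolate endpoints linearly. Abbreviation: GI50, concentration required for 50% inhibition of growth. Definition used: TGI = concentration required for complete inhibition of growth.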
Legend:
Experiment in all cases: DTP human tumour cell line panel, 48 h
786-0 renal = system: 786-0 renal
A498 renal = system: A498 renal
A549 NSCLC = system: A549 NSCLC
ACHN renal = system: ACHN renal
BT-549 breast = system: BT-549 breast
CAKI-1 renal = system: CAKI-1 renal
CCRF-CEM leukemia = system: CCRF-CEM leukemia
COLO 205 colon = system: COLO 205 colon
DU-145 prostate = system: DU-145 prostate
EKVX NSCLC = system: EKVX NSCLC
HCC-2998 colon = system: HCC-2998 colon
HCT-116 colon = system: HCT-116 colon
HCT-15 colon = system: HCT-15 colon
HL-60(TB) leukemia = system: HL-60(TB) leukemia
HOP-62 NSCLC = system: HOP-62 NSCLC
HOP-92 NSCLC = system: HOP-92 NSCLC
HS 578T breast = system: HS 578T breast
HT29 colon = system: HT29 colon
IGROV1 ovarian = system: IGROV1 ovarian
K-562 leukemia = system: K-562 leukemia
KM12 colon = system: KM12 colon
LOX IMVI melanoma = system: LOX IMVI melanoma
M14 melanoma = system: M14 melanoma
MALME-3M melanoma = system: MALME-3M melanoma
MCF7 breast = system: MCF7 breast
MDA-MB-231 breast = system: MDA-MB-231 breast
MDA-MB-435 = system: MDA-MB-435
MDA-MB-468 breast = system: MDA-MB-468 breast
MOLT-4 leukemia = system: MOLT-4 leukemia
NCI-H226 lung = system: NCI-H226 lung
NCI-H23 lung = system: NCI-H23 lung
NCI-H460 lung = system: NCI-H460 lung
NCI-H522 lung = system: NCI-H522 lung
NCI/ADR-RES ovarian = system: NCI/ADR-RES ovarian
OVCAR-3 ovarian = system: OVCAR-3 ovarian
OVCAR-4 ovarian = system: OVCAR-4 ovarian
OVCAR-5 ovarian = system: OVCAR-5 ovarian
OVCAR-8 ovarian = system: OVCAR-8 ovarian
PC-3 prostate = system: PC-3 prostate
RPMI-8226 leukemia = system: RPMI-8226 leukemia
RXF 393 renal = system: RXF 393 renal
SF-268 CNS = system: SF-268 CNS
SF-295 CNS = system: SF-295 CNS
SF-539 CNS = system: SF-539 CNS
SK-MEL-2 melanoma = system: SK-MEL-2 melanoma
SK-MEL-28 melanoma = system: SK-MEL-28 melanoma
SK-MEL-5 melanoma = system: SK-MEL-5 melanoma
SK-OV-3 ovarian = system: SK-OV-3 ovarian
SN12C renal = system: SN12C renal
SNB-19 CNS = system: SNB-19 CNS
SNB-75 CNS = system: SNB-75 CNS
SR leukemia = system: SR leukemia
SW-620 colon = system: SW-620 colon
T-47D breast = system: T-47D breast
TK-10 renal = system: TK-10 renal
U251 CNS = system: U251 CNS
UACC-257 melanoma = system: UACC-257 melanoma
UACC-62 melanoma = system: UACC-62 melanoma
UO-31 renal = system: UO-31 renal

O=C(Nc1ccc(OCc2ccc(F)cc2)cc1)Nc1ccc(Cl)c(C(F)(F)F)c1
GI50 (786-0 renal): 3.12 µM
TGI (786-0 renal): 11.9 µM
GI50 (A498 renal): 2.16 µM
TGI (A498 renal): 6.69 µM
GI50 (A549 NSCLC): 2.83 µM
TGI (A549 NSCLC): 12.1 µM
GI50 (ACHN renal): 3.21 µM
TGI (ACHN renal): 11 µM
GI50 (BT-549 breast): 2.08 µM
TGI (BT-549 breast): 6.1 µM
GI50 (CAKI-1 renal): 2.56 µM
TGI (CAKI-1 renal): 9.1 µM
GI50 (CCRF-CEM leukemia): 3.01 µM
TGI (CCRF-CEM leukemia): 11.3 µM
GI50 (COLO 205 colon): 1.82 µM
TGI (COLO 205 colon): 3.37 µM
GI50 (DU-145 prostate): 3.96 µM
TGI (DU-145 prostate): 14.3 µM
GI50 (EKVX NSCLC): 2.56 µM
TGI (EKVX NSCLC): 8.33 µM
GI50 (HCC-2998 colon): 3.08 µM
TGI (HCC-2998 colon): 11.2 µM
GI50 (HCT-116 colon): 3.11 µM
TGI (HCT-116 colon): 10.4 µM
GI50 (HCT-15 colon): 2.75 µM
TGI (HCT-15 colon): 11 µM
GI50 (HL-60(TB) leukemia): 2.7 µM
TGI (HL-60(TB) leukemia): 7.29 µM
GI50 (HOP-62 NSCLC): 3.03 µM
TGI (HOP-62 NSCLC): 11.4 µM
GI50 (HOP-92 NSCLC): 1.88 µM
TGI (HOP-92 NSCLC): 5.78 µM
GI50 (HS 578T breast): 2.88 µM
TGI (HS 578T breast): 8.28 µM
GI50 (HT29 colon): 3.33 µM
TGI (HT29 colon): 14.5 µM
GI50 (IGROV1 ovarian): 4.45 µM
TGI (IGROV1 ovarian): 16.2 µM
GI50 (K-562 leukemia): 3.02 µM
TGI (K-562 leukemia): > 100 µM
GI50 (KM12 colon): 2.86 µM
TGI (KM12 colon): 8.39 µM
GI50 (LOX IMVI melanoma): 2.79 µM
TGI (LOX IMVI melanoma): 9.64 µM
GI50 (M14 melanoma): 2.79 µM
TGI (M14 melanoma): 10.4 µM
GI50 (MALME-3M melanoma): 2.07 µM
TGI (MALME-3M melanoma): 5.78 µM
GI50 (MCF7 breast): 2.25 µM
TGI (MCF7 breast): 8.25 µM
GI50 (MDA-MB-231 breast): 2.46 µM
TGI (MDA-MB-231 breast): 5.84 µM
GI50 (MDA-MB-435): 2.15 µM
TGI (MDA-MB-435): 4.9 µM
GI50 (MDA-MB-468 breast): 1.85 µM
TGI (MDA-MB-468 breast): 4.71 µM
GI50 (MOLT-4 leukemia): 2.74 µM
TGI (MOLT-4 leukemia): 13.8 µM
GI50 (NCI-H226 lung): 2.46 µM
TGI (NCI-H226 lung): 7.87 µM
GI50 (NCI-H23 lung): 2.38 µM
TGI (NCI-H23 lung): 7.17 µM
GI50 (NCI-H460 lung): 2.51 µM
TGI (NCI-H460 lung): 6.68 µM
GI50 (NCI-H522 lung): 3.03 µM
TGI (NCI-H522 lung): 12.3 µM
GI50 (NCI/ADR-RES ovarian): 2.4 µM
TGI (NCI/ADR-RES ovarian): 8.36 µM
GI50 (OVCAR-3 ovarian): 3.11 µM
TGI (OVCAR-3 ovarian): 10.6 µM
GI50 (OVCAR-4 ovarian): 2.89 µM
TGI (OVCAR-4 ovarian): 10.3 µM
GI50 (OVCAR-5 ovarian): 3.24 µM
TGI (OVCAR-5 ovarian): 12.2 µM
GI50 (OVCAR-8 ovarian): 3.52 µM
TGI (OVCAR-8 ovarian): 13.9 µM
GI50 (PC-3 prostate): 2.21 µM
TGI (PC-3 prostate): 10.7 µM
GI50 (RPMI-8226 leukemia): 2.77 µM
TGI (RPMI-8226 leukemia): 21.8 µM
GI50 (RXF 393 renal): 2.57 µM
TGI (RXF 393 renal): 7.32 µM
GI50 (SF-268 CNS): 3.37 µM
TGI (SF-268 CNS): 12.1 µM
GI50 (SF-295 CNS): 1.89 µM
TGI (SF-295 CNS): 4.82 µM
GI50 (SF-539 CNS): 3.13 µM
TGI (SF-539 CNS): 10.1 µM
GI50 (SK-MEL-2 melanoma): 2.51 µM
TGI (SK-MEL-2 melanoma): 7.15 µM
GI50 (SK-MEL-28 melanoma): 3.62 µM
TGI (SK-MEL-28 melanoma): 12.7 µM
GI50 (SK-MEL-5 melanoma): 1.68 µM
TGI (SK-MEL-5 melanoma): 3.07 µM
GI50 (SK-OV-3 ovarian): 2.28 µM
TGI (SK-OV-3 ovarian): 7.28 µM
GI50 (SN12C renal): 2.88 µM
TGI (SN12C renal): 10.3 µM
GI50 (SNB-19 CNS): 3.22 µM
TGI (SNB-19 CNS): 11.9 µM
GI50 (SNB-75 CNS): 1.33 µM
TGI (SNB-75 CNS): 6.2 µM
GI50 (SR leukemia): 2.85 µM
TGI (SR leukemia): 12.6 µM
GI50 (SW-620 colon): 3.31 µM
TGI (SW-620 colon): 11.6 µM
GI50 (T-47D breast): 2.46 µM
TGI (T-47D breast): 10.1 µM
GI50 (TK-10 renal): 3.83 µM
TGI (TK-10 renal): 14.4 µM
GI50 (U251 CNS): 2.74 µM
TGI (U251 CNS): 10.8 µM
GI50 (UACC-257 melanoma): 2.2 µM
TGI (UACC-257 melanoma): 6.68 µM
GI50 (UACC-62 melanoma): 2.25 µM
TGI (UACC-62 melanoma): 7.75 µM
GI50 (UO-31 renal): 2.37 µM
TGI (UO-31 renal): 10.1 µM
